Our source for the TGI and GI50 values is PubChem BioAssay (NCI).

What all share (assay): NCI-60 cell line screen, 48 h
The test system of experiment [1] is NCI-H522 lung.
Experiment [2] deals with IGROV1 ovarian.
The subject of experiment [3] is HCT-116 colon.
Experiment [4] concerns SK-MEL-2 melanoma.
In experiment [5] the test system is HCT-15 colon.
For experiment [6], the system named is BT-549 breast.
Experiment [7] has as its system MDA-N.
The test system of experiment [8] is U251 CNS.
In experiment [9] the test system is SW-620 colon.
For experiment [10], the system named is MOLT-4 leukemia.
In experiment [11] the test system is KM12 colon.
The test system of experiment [12] is OVCAR-3 ovarian.

Values joined by “and” are separate entries in the source; they are usually repeats but may differ in a detail not shown here. Equal values may be shown once.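 96-well plates; 48 h exposure; 5 concentrations. Endpoints by linear interpolation between flanking doses. Not reached: highest tested concentration assigned. Abbreviation: GI50, concentration required for 50% inhibition of growth. TGI is the concentration that stops growth completely.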

Take `C=C[C@H]1CN2CCc3c([nH]c4c([C@H]5CCCN5C)c(O)ccc34)[C@@H]2C[C@@H]1C[C@H]1c2[nH]c3ccccc3c2CCN1C`: the TGI in [1] was determined as 3.52 µM; in [2] it was 3.04 µM; in [3], 2.61 µM; in experiment [4] it was 3.53 µM; in experiment [5] it was 2.3 µM; in experiment [6], 3.72 µM. Also, the TGI was 2.64 µM in experiment [7]; 2.92 µM in [8]; 2.93 µM in [9]; 5.32 µM in experiment [10]; 2.82 µM in [11]; 3 µM in experiment [12].
Turning to `CN(C)CCNc1ccc2c(=O)n(CCN(C)C)c(=O)n3c4ccc(N)cc4c(=O)c1c23`, the TGI in experiment [1] is 0.0832 µM; in experiment [2], 0.534 µM; in experiment [3], 0.166 µM; in [4], 0.496 µM; in [5], 1.08 µM; in experiment [6], 1.87 µM. Further, the TGI was 0.219 µM in experiment [7]; 0.988 µM in [8]; 0.637 µM in experiment [9]; 0.161 µM in [10]; 7.52 µM in experiment [11]; 1.22 µM in [12].
For `O=C(O)CN1CCN(CC(=O)O)CCN(CC(=O)O)CCN(CC(=O)O)CC1`, the TGI in [1], in [2], in experiment [3], in experiment [4], in [5] and in experiment [6] was > 100 µM in each case. Further, the TGI in experiment [7], in [8], in experiment [9], in experiment [10], in experiment [11] and in experiment [12] was > 100 µM in each case.
Turning to `COc1ccc(OC)c2nc3c(C(=O)NCCN(C)C)cccc3nc12`, the TGI is 13.4 µM in experiment [1]; > 69.5 µM in experiment [2]; 20.6 µM in experiment [3]; 25.9 µM in [4]; > 51.5 µM in [5]; 33 µM in experiment [6]. For the same compound, the TGI in experiment [7] amounted to 16 µM; in [8], 28.6 µM; in experiment [9] it was 21.7 µM; in [10], 17.6 µM; in experiment [11], 22.3 µM; in [12], 42.3 µM.
As for `[N-]=[N+]=Nc1ccc2c(c1)Sc1ccccc1N2CCCCCl`, the TGI in experiment [1] was > 100 µM; in [2] it was > 100 µM; in experiment [3], > 100 µM; in [4], 76.9 µM; in experiment [5] it was > 100 µM; in experiment [6], > 100 µM. The TGI in experiment [7], in experiment [8], in [9], in experiment [10], in [11] and in experiment [12] was > 100 µM throughout.
Regarding `CC1=C(OC2OC(CO)C(O)C(O)C2O)C(=O)C[C@H]2C1=CC[C@@H]1[C@@]2(C)C(=O)C[C@]2(C)[C@@H]([C@@](C)(O)C(=O)CCC(C)(C)O)[C@H](O)C[C@@]12C` (stereo partly drawn), the TGI in [1], in experiment [2], in [3], in experiment [4], in experiment [5] and in experiment [6] was > 100 µM in each case. Also, the TGI in [7], in [8], in experiment [9], in experiment [10], in experiment [11] and in experiment [12] was > 100 µM in each case.
In the case of `CN(C)CCO/N=C1/C=C2CC[C@H]3[C@@H]4CC[C@H](O)[C@@]4(C)CC[C@@H]3[C@@]2(C)CC1`, the TGI in experiment [1] was determined as 13.7 µM; in experiment [2], 25.2 µM; in [3], 31.5 µM; in [4], 37.4 µM; in [5], 47.7 µM; in experiment [6], 8.27 µM. Also, the TGI in experiment [7] was 11.2 µM; in experiment [8], 27.5 µM; in [9] it was 36.1 µM; in experiment [10] it was > 36.3 µM; in [11], 32.4 µM; in experiment [12], 61 µM.
Consider `CCCCCCCCCCCCCCCCP(=O)(O)OP(=O)(O)OCC1OC(n2cnc3c(N)ncnc32)C(O)C1O` (stereo not drawn), for which the TGI in experiment [1] is 41.7 µM; in experiment [2], 35.9 µM; in [3], 47.3 µM; in [4], > 100 µM; in experiment [5], 59.4 µM; in experiment [6] it was > 100 µM. Moreover, the TGI in experiment [7] is > 100 µM; in experiment [8], 41.1 µM; in [9], 88.1 µM; in experiment [10], 76.4 µM; in experiment [11], 53.8 µM; in [12], 88.1 µM.
On to `NC1=NC(OCC2(CO)CCC2)C=C(NCC2(CO)CCC2)N1` (stereo not drawn), for which the TGI in [1], in experiment [2], in [3], in [4], in experiment [5] and in experiment [6] was > 100 µM each time. The TGI in [7], in [8], in [9], in experiment [10], in experiment [11] and in [12] was > 100 µM in each case.
For the compound `O=S1(=O)CCN(Cc2ccccc2)/C1=N\S(=O)(=O)c1ccc(Cl)cc1`, the TGI stood at 29.9 µM in [1]; 32.5 µM in experiment [2]; 33 µM in [3]; 53.3 µM in experiment [4]; 37 µM in experiment [5]; 31.1 µM in [6]. The TGI in [7] is 32.2 µM; in experiment [8], 33.5 µM; in [9] it was 36.7 µM; in experiment [10], 49.9 µM; in [11], > 100 µM; in experiment [12], 36.1 µM.
Take `C/C=C(/C)C(=O)O[C@H]1C(C)=C[C@]23C(=O)[C@@H](C=C(COC(C)=O)[C@@H](O)[C@]12O)[C@H]1[C@@H](C[C@H]3C)[C@@]1(C)OC(=O)/C(C)=C\C`: the TGI in [1] amounted to 6.07 µM; in experiment [2], 10.2 µM; in [3], 9.77 µM; in experiment [4] it was 6.01 µM; in [5], 7.17 µM; in experiment [6] it was 5.73 µM. The TGI in [7] came out at 6.35 µM; in experiment [8], 7.55 µM; in experiment [9], 9.76 µM; in [10] it was 3.56 µM; in experiment [11] it was 4.06 µM; in [12], 5.99 µM.
As for `C[Si](C)(C)OC1c2[nH]c3ccccc3c2CN2C(=O)CCC12` (stereo not drawn), the TGI in experiment [1], in [2], in experiment [3], in experiment [4], in [5] and in [6] was > 100 µM each time. For the same compound, the TGI in experiment [7], in [8], in [9], in experiment [10], in experiment [11] and in experiment [12] was > 100 µM each time.
On to `CCCCc1c2c(nc3c1CCC/C3=C\c1ccccc1)C(=O)C(CN(C)C)CC2` (stereo not drawn), for which the TGI stood at 30.1 µM in experiment [1]; 36.9 µM in [2]; 32.6 µM in experiment [3]; 39.4 µM in experiment [4]; 20.7 µM in experiment [5]; 19.8 µM in experiment [6]. Also, the TGI in experiment [7] amounted to 21.1 µM; in experiment [8], 32.5 µM; in experiment [9], 31.5 µM; in experiment [10], 11.5 µM; in experiment [11] it was 33.6 µM; in [12], 39.9 µM.
Regarding `O=C1N=C(c2ccccc2)O/C1=C\c1ccccc1`, the TGI in experiment [1], in experiment [2], in experiment [3], in experiment [4], in experiment [5] and in [6] was > 100 µM in each case. Besides, the TGI in experiment [7], in experiment [8], in experiment [9], in experiment [10], in experiment [11] and in experiment [12] was > 100 µM in each case.
Turning to `CC(=O)CCC[C@@H](C)[C@@H]1O[C@H]([C@@]2(C)CCC(=O)O2)C[C@H]2C(CSc3ccccc3)C(=O)O[C@@H]12` (stereo partly drawn), the TGI in [1] was 15.2 µM; in [2], > 38 µM; in experiment [3] it was 31.2 µM; in experiment [4], 40.6 µM; in [5] it was 47.3 µM; in [6], 27.5 µM. The TGI in experiment [7] amounted to 42.2 µM; in experiment [8], 36.3 µM; in [9], 28.8 µM; in experiment [10], 16 µM; in experiment [11], 28.9 µM; in [12], 27.8 µM.
`C=C(C)[C@@H]1CC[C@]2(C(=O)O)CC[C@]3(C)[C@H](CC[C@@H]4[C@@]5(C)CC[C@H](C(=O)/C=C/c6ccc(O)cc6)C(C)(C)[C@@H]5CC[C@]43C)[C@@H]12`: the TGI in [1] was 39.5 µM; in [2], 28.3 µM; in experiment [3], > 100 µM; in [4] it was 46.8 µM; in experiment [5], 17.3 µM; in experiment [6], 38.5 µM. In addition, the TGI is 18 µM in [7]; > 100 µM in [8]; 15.2 µM in experiment [9]; 51.6 µM in experiment [10]; 18.4 µM in experiment [11]; 10.3 µM in [12].
In the case of `Cc1ccc(S(=O)(=O)N2CCCCN(S(=O)(=O)c3ccc(C)cc3)Cc3ccccc3OCCOCCOc3c4cccc3Cc3cccc5c3OCCOCCOc3ccccc3CN(S(=O)(=O)c3ccc(C)cc3)CCCN(S(=O)(=O)c3ccc(C)cc3)Cc3ccccc3OCCOCCOc3c(cccc3C4)Cc3cccc(c3OCCOCCOc3ccccc3C2)C5)cc1`, the TGI in experiment [1], in experiment [2], in experiment [3], in experiment [4], in experiment [5] and in [6] was > 100 µM in each case. Further, the TGI in [7], in [8], in [9], in [10], in [11] and in experiment [12] was > 100 µM each time.
Consider `CC1(C)C(=O)N=C(N)N1C(=O)OCc1ccccc1`, for which the TGI in [1], in [2], in experiment [3], in [4], in [5] and in [6] was > 100 µM in each case. Moreover, the TGI in experiment [7], in experiment [8], in experiment [9], in experiment [10], in experiment [11] and in experiment [12] was > 100 µM in each case.
For `Cn1c2nc3ccccc3c-2cc2ccccc21`, the GI50 was 2.07 µM and 6.03 µM in [1]; 1.8 µM and 4.57 µM in [3]; 3.94 µM and 11.1 µM in [4]; 1.14 µM and 4.06 µM in experiment [5]; 4.27 µM and 10.4 µM in experiment [7]; 4.17 µM and 8.75 µM in experiment [8]. Moreover, the GI50 in experiment [10] is 1.38 µM and 2.97 µM; in [11] it was 2.19 µM and 6.02 µM. Further, the TGI in experiment [1] is 10.3 µM and 23.7 µM; in experiment [2] it was 25.5 µM and > 100 µM; in experiment [3] it was > 100 µM; in [4], 17.2 µM and 24 µM; in [5] it was 7.3 µM and 23.4 µM; in experiment [6], 9.09 µM. Further, the TGI in experiment [7] was 30.1 µM and 23.1 µM; in [8], > 53.5 µM and 32.4 µM; in experiment [9] it was > 48.7 µM and 39 µM; in experiment [10] it was 7.15 µM and 9.9 µM; in experiment [11] it was 11 µM and 46.4 µM; in experiment [12], > 46.2 µM and 28 µM.
As to `COC(=O)[C@H](Cc1ccccc1)NC(=O)N1CCN(C(=O)N[C@@H](Cc2ccccc2)C(=O)OC)CCN(C(=O)N[C@@H](Cc2ccccc2)C(=O)OC)CC1`, the TGI in experiment [1], in [2], in [3], in experiment [4], in [5] and in [6] was > 100 µM throughout. Also, the TGI in experiment [7], in experiment [8], in experiment [9], in experiment [10], in [11] and in experiment [12] was > 100 µM each time.
